In patent US10945978B2, “Treatment and diagnosis of melanoma” (The Rockefeller University, priority 2012, dated 2021):
Where a name gives a salt, the structure may show the parent alone.

Columns and labels:
[1] = test system: DNAJA4; test: DNAJA4 expression by qRT-PCR in parental MeWo cells; assay type: cell-based, human; settings: GW3965 48 hours
Description: (§1) Total RNA was extracted from various cell lines using the miRvana kit (AM1560, Applied Biosystems, Austin, Tex.). The expression levels of mature miRNAs were quantified using the Taqman miRNA expression assay (4427975-0002228, Applied Biosystems). RNU44 was used as an endogenous control for normalization. For mRNA expression analyses, 600 ng of total RNA was reverse transcribed using the cDNA First-Strand Synthesis Kit (18080-051, Invitrogen), and roughly 200 ng of the resulting cDNA was then mixed with SYBR green PCR Master Mix (4309155, Applied Biosystems) and the appropriate primers. Each reaction was performed in quadruplicate, and mRNA expression was quantified by performing real-time PCR amplification using an ABI Prism 7900HT Real-Time PCR System (Applied Biosystems). GAPDH was used as an endogenous control for normalization. The following primers were used: […]

[2] = test system: DTIC-resistant MeWo human melanoma cells; settings: oral, GW3965 diet 100 mg/kg
Description: Following growth of tumors to 5-10 mm^3 in volume, mice were blindedly assigned to the following treatment groups: (1) control diet; (2) control diet+DTIC (50 mg/kg); (3) GW3965-supplemented diet (100 mg/kg). […] DTIC was administered daily, as described above, in cycles consisting of 5 consecutive daily treatments interspersed by 2-day off-treatment intervals. Tumor growth was measured twice a week.

[3] = test system: B16F10 parental and DTIC-resistant cells; test: Tumor growth by DTIC-sensitive and DTIC-resistant B16F10 cells; assay type: in vivo, mouse; settings: chow supplemented with GW3965 100 mg/kg
Description: First, the cells were treated with 500 μg/mL DTIC for one week. Following this initial DTIC treatment, the remaining (˜10%) viable cells were allowed to recover for one week, after which 750 rag/mL of DTIC was added to the cell media for 5 days. Subsequent to this high-dose treatment, the cells were allowed to recover in the presence of low-dose DTIC (100 jag/mL) for one week. The cells were then continuously cultured in cell media containing 200 rag/mL DTIC for at least one month prior to grafting the cells into mice. DTIC was added to fresh cancer cell media every 3 days.

[4] = test system: SK-Mel-334.2 primary human melanoma line; test: Subcutaneous SK-Mel-334.2 tumor growth in immunocompromised mice; assay type: in vivo; settings: oral, GW3965-supplemented diet
[5] = test system: B-Raf^V600E/+; Pten^−/−; CDKN2A^−/− primary mouse melanoma cells; test: B-RafV600E/+; Pten−/−; CDKN2A−/− melanoma cells in syngeneic C57BL/6 mice; assay type: in vivo; settings: GW3965 diet 100 mg/kg
Description: Melanoma cells used for in vivo metastasis assays were transduced with a stably expressed retroviral construct encoding a luciferase reporter gene (Ponomarev et al., 2004), allowing us to monitor the in vivo progression of melanoma cells by bioluminescence imaging. The following numbers of melanoma cells, resuspended in 100 μL of PBS, were injected intravenously via the tail-vein: 4×10^4 MeWo cells, 2.5×10^5 HT-144 cells, 2×10^5 SK-Mel-334.2 cells, 5×10^4B16F10 cells, and 1×10^5 YUMM cells. The MeWo, HT-144, and SK-Mel-334.2 cells were injected into 6-8 week-old sex-matched NOD scid mice, while the B16F10 and YUMM cells were injected into 6-8 week-old sex-matched C57BL/6 mice. […] To assess the effect of GW3965 treatment on brain metastasis, 1×10^5 MeWo brain-metastatic derivatives were injected intracardially into athymic nude mice. Immediately following injection, mice were randomly assigned to a control diet or GW3965-supplemented diet (100 mg/kg). To determine whether oral delivery of GW3965 can inhibit the progression of incipient metastasis, NOD Scid mice were intravenously injected with 4×10^4 MeWo cells and the cells were allowed to colonize the lungs for 42 days, after which mice were blindedly assigned to a control diet or a GW3965-supplemented diet (100 mg/kg) treatment.

[6] = test system: ApoE; test: ApoE expression by qRT-PCR in human melanoma cells; assay type: cell-based; settings: parental MeWo cells; GW3965 48 hours
Description: as §1
RNA was extracted from whole cell lysates using the Total RNA Purification Kit (17200, Norgen, Thorold, Canada). 600 ng of total RNA was then reverse transcribed into cDNA using the cDNA First-Strand Synthesis Kit (18080-051, Invitrogen), and quantitative real-time PCR amplification was performed as previously described (Pencheva et al., 2012) using an ABI Prism 7900HT Real-Time PCR System (Applied Biosystems, Austin, Tex.). Each PCR reaction was carried out in quadruplicates. Gene expression was normalized to GAPDH, which was used as an endogenous control.
For every sample, 600 ng of RNA was reverse transcribed into cDNA using the cDNA First-Strand Synthesis kit (Invitrogen). Approximately 200 ng of cDNA was mixed with SYBR® green PCR Master Mix and the corresponding forward and reverse primers specific for detection of human ApoE. Each reaction was carried out in quadruplicates, and ApoE mRNA expression levels were measured by quantitative real-time PCR amplification using an ABI Prism 7900HT Real-Time PCR System (Applied Biosystems). The relative ApoE expression was determined using the ΔΔCt method. GAPDH was used as an endogenous control for normalization purposes.

[7] = test system: SK-Mel-2 human melanoma cells; test: Subcutaneous SK-Mel-2 tumor growth in immunocompromised mice; assay type: in vivo; settings: oral, GW3965-supplemented diet
[8] = test system: VEGF-induced endothelial recruitment; test: In vivo matrigel plug assay; set-up: species or system mouse; settings: VEGF 400 ng/mL + recombinant ApoE3 10 μg/mL
Description: 10 μg/mL recombinant human ApoE3 (4696, BioVision), 10 μg/mL BSA (A2153, Sigma Aldrich), or 400 ng/ml VEGF were mixed with matrigel (356231, BD Biosciences) as indicated. 400 μL of matrigel containing the indicated recombinant proteins were injected subcutaneously just above the ventral flank of immunocompromised NOD-SCID mice. Plugs were extracted on day 3 post-injection and fixed in 4% paraformaldehyde for 48 hours. Plugs were then paraffin-embedded and sectioned at 5-μm-thick increments. Plug cross-sectional sections were immunohistochemically stained using a primary antibody against the mouse endothelial antigen MECA-32 (Developmental Studies Hybridoma Bank, The University of Iowa, IA), detected by peroxidase-conjugated secondary antibody, and subsequently visualized by DAB oxidization. To quantify the extent of endothelial cell invasion into each matrigel plug, the number of endothelial cells was counted in 4-5 random fields for each plug, and the average number of endothelial cells per given plug area was calculated.

| Compound | expression of DNAJA4 [1] | growth of in vivo-derived DTIC-resistant human melanoma tumors [2] | suppression of tumor growth by the DTIC-resistant B16F10 clone [3] | tumor growth inhibition [4] [%] | overall survival [5] | tumor growth and lung metastasis [5] | expression of ApoE [6] | tumor growth inhibition [7] [%] | suppression of VEGF-induced endothelial recruitment into subcutaneous matrigel plugs [8] |
| --- | --- | --- | --- | --- | --- | --- | --- | --- | --- |
| O=C(O)Cc1cccc(OCCCN(Cc2cccc(C(F)(F)F)c2Cl)CC(c2ccccc2)c2ccccc2)c1 [GW3965 2, 3-[3-[N-(2-Chloro-3-trifluoromethylbenzyl)-(2,2-diphenylethyl)amino]propyloxy] phenylacetic acid hydrochloride] | increased | strongly inhibited | more than 70% | 73 | extended | robustly inhibited | increased | 49 | – |
| recombinant human ApoE: recombinant human ApoE3 (4696, BioVision) | – | – | – | – | – | – | – | – | greater than 40 fold |
